Results reported in patent US20240343704A1, “HALO-SUBSTITUTED AMINO PYRIDINE COMPOUNDS AS INHIBITORS OF THE HAEMATOPOIETIC PROGENITOR KINASE 1 (HPK1)” (priority 2021, published 2024).

Assays:
[1] = target: T1, Recombinant (1-346) HPK1 (h) (Homo sapiens, UniProt Q92918); experiment: HPK1 Human STE Kinase Enzymatic Radiometric Assay; assay type: biochemical; conditions: read-out: HPK1 IC50 nM Range*
T1 construct: Recombinant (1-346) HPK1 (h) is incubated with 8 mM MOPS pH 7.0
T1 sequence (Q92918 1-346): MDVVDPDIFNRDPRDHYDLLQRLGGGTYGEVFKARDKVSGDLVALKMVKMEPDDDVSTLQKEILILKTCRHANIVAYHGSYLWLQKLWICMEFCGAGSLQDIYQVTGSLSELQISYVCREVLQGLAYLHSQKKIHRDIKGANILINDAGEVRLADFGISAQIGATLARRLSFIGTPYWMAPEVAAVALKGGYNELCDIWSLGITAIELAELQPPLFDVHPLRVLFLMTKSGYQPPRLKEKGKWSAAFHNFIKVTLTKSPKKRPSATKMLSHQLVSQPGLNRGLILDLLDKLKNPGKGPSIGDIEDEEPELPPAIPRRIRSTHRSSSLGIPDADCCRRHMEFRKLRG
Procedure: A stock solution of 10 mM of test compound is prepared in DMSO. The compound plate was prepared by 3-fold and 9-point serial dilutions. […] The reaction is initiated by The addition of the Mg/ATP mix. After incubation for 40 minutes at RT, the reaction is stopped by the addition of phosphoric acid to a concentration of 0.5%.

[2] = target: Lck (h) (Homo sapiens, UniProt P06239); experiment: Lck Human  Kinase Enzymatic Radiometric Assay; assay type: biochemical; conditions: read-out: Lck IC50 nM Range*
How it was run: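 Substrate 33P-incorporation measured by scintillation counting after spotting on P30 filtermat and phosphoric acid washes. Human Lck reacted 40 min at RT in 50 mM Tris pH 7.5 with 10 mM MgAcetate, [gamma-33P]-ATP, 250 uM Cdc2 peptide, 0.1 mM EGTA and 0.1 mM Na3VO4.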

Lck (h), sequence (P06239 whole entry): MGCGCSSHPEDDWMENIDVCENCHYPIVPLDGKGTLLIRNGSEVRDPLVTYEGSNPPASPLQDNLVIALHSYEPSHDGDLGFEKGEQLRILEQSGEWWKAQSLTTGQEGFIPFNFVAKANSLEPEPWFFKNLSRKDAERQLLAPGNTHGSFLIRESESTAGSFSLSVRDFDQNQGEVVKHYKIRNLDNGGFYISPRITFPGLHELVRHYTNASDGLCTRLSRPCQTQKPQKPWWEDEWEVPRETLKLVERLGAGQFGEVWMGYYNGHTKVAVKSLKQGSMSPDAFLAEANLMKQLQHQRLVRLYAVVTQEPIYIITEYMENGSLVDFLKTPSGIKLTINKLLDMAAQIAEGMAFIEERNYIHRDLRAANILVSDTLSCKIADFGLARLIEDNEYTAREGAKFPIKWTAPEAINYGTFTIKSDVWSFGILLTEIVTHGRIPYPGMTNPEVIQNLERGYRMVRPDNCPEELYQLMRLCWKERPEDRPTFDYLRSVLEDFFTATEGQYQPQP

Row | IC50 [1] | IC50 [2] | SMILES
1 | 0.1 to 10 nM | > 1000 nM | CCN1CC=C(c2ccc(-c3cc(-c4ccc5c(c4)CCNC5=O)c(N)nc3F)cc2)C1 [I-120, 6-(2-amino-5-(4-(1-ethyl-2,5-dihydro-1H-pyrrol-3-yl)phenyl)-6-fluoropyridin-3-yl)-3,4-dihydroisoquinolin-1(2H)-one]
2 | 0.1 to 10 nM | > 1000 nM | COCCN1CCCC(c2ccc(-c3cc(-c4ccc5c(c4)CCNC5=O)c(N)nc3F)cc2)C1 (stereo not shown) [I-122, 6-(2-amino-6-fluoro-5-(4-(1-(2-methoxyethyl)piperidin-3-yl)phenyl)pyridin-3-yl)-3,4-dihydroisoquinolin-1(2H)-one]
3 | 0.1 to 10 nM | > 1000 nM | CC(C)(O)CN1C[C@H]2C[C@@]2(c2ccc(-c3cc(-c4ccc5c(c4)CCNC5=O)c(N)nc3F)cc2)C1 [I-125, 6-(2-amino-6-fluoro-5-(4-((1R,5S)-3-(2-hydroxy-2-methylpropyl)-3-azabicyclo[3.1.0]hexan-1-yl)phenyl)pyridin-3-yl)-3,4-dihydroisoquinolin-1(2H)-one]
4 | 0.1 to 10 nM | > 1000 nM | CC(C)(O)CN1C[C@@H]2C[C@]2(c2ccc(-c3cc(-c4ccc5c(c4)CCNC5=O)c(N)nc3F)cc2)C1 [I-126, 6-(2-amino-6-fluoro-5-(4-((1S,5R)-3-(2-hydroxy-2-methylpropyl)-3-azabicyclo[3.1.0]hexan-1-yl)phenyl)pyridin-3-yl)-3,4-dihydroisoquinolin-1(2H)-one]
5 | 11 to 100 nM | > 1000 nM | Nc1nc(F)c(-c2ccc(S(=O)(=O)C3CCNCC3)cc2)cc1-c1ccc2c(c1)CCNC2=O [I-128, 6-(2-amino-6-fluoro-5-(4-(piperidin-4-ylsulfonyl)phenyl)pyridin-3-yl)-3,4-dihydroisoquinolin-1(2H)-one]
6 | 0.1 to 10 nM | > 1000 nM | CCN1CCOCC1c1ccc(-c2cc(-c3ccc4c(c3)CCNC4=O)c(N)nc2F)cc1 (stereo not shown) [I-131, 6-(2-amino-5-(4-(4-ethylmorpholin-3-yl)phenyl)-6-fluoropyridin-3-yl)-3,4-dihydroisoquinolin-1(2H)-one]
7 | 0.1 to 10 nM | > 1000 nM | CC(C)N1CCOCC1c1ccc(-c2cc(-c3ccc4c(c3)CCNC4=O)c(N)nc2F)cc1 (stereo not shown) [I-132, 6-(2-amino-6-fluoro-5-(4-(4-isopropylmorpholin-3-yl)phenyl)pyridin-3-yl)-3,4-dihydroisoquinolin-1(2H)-one]
8 | 0.1 to 10 nM | > 1000 nM | COCCN1CCOCC1c1ccc(-c2cc(-c3ccc4c(c3)CCNC4=O)c(N)nc2F)cc1 (stereo not shown) [I-134, 6-(2-amino-6-fluoro-5-(4-(4-(2-methoxyethyl)morpholin-3-yl)phenyl)pyridin-3-yl)-3,4-dihydroisoquinolin-1(2H)-one]
9 | 0.1 to 10 nM | > 1000 nM | Nc1nc(F)c(-c2ccc([C@]34CNC[C@H]3C4)cc2)cc1-c1ccc2c(c1)CCNC2=O [I-135, 6-(5-(4-((1R,5S)-3-azabicyclo[3.1.0]hexan-1-yl)phenyl)-2-amino-6-fluoropyridin-3-yl)-3,4-dihydroisoquinolin-1(2H)-one]
10 | 0.1 to 10 nM | > 1000 nM | COCCN1C[C@H]2C[C@@]2(c2ccc(-c3cc(-c4ccc5c(c4)CCNC5=O)c(N)nc3F)cc2)C1 [I-140, 6-(2-amino-6-fluoro-5-(4-((1R,5S)-3-(2-methoxyethyl)-3-azabicyclo[3.1.0]hexan-1-yl)phenyl)pyridin-3-yl)-3,4-dihydroisoquinolin-1(2H)-one]
11 | 0.1 to 10 nM | > 1000 nM | CC(C)C(=O)N1C[C@H]2C[C@@]2(c2ccc(-c3cc(-c4ccc5c(c4)CCNC5=O)c(N)nc3F)cc2)C1 [I-143, 6-(2-amino-6-fluoro-5-(4-((1R,5S)-3-isobutyryl-3-azabicyclo[3.1.0]hexan-1-yl)phenyl)pyridin-3-yl)-3,4-dihydroisoquinolin-1(2H)-one]
12 | 0.1 to 10 nM | 101 to 1000 nM | C[C@H]1CC(Oc2ccc(-c3cc(-c4ccc5c(c4)CCNC5=O)c(N)nc3F)cc2)C[C@H](C)N1 (stereo partly drawn) [I-144, 6-(2-amino-5-(4-(((2S,6S)-2,6-dimethylpiperidin-4-yl)oxy)phenyl)-6-fluoropyridin-3-yl)-3,4-dihydroisoquinolin-1(2H)-one]

The next lines start with the compound.

Row | SMILES | IC50 [1] | IC50 [2]
13 | CC(C)N1CC=C(c2ccc(-c3cc(-c4ccc5c(c4)CCNC5=O)c(N)nc3F)cc2)C1 [I-121, 6-(2-amino-6-fluoro-5-(4-(1-isopropyl-2,5-dihydro-1H-pyrrol-3-yl)phenyl)pyridin-3-yl)-3,4-dihydroisoquinolin-1(2H)-one] | 0.1 to 10 nM | > 1000 nM
14 | Nc1nc(F)c(-c2ccc(C3=CCN(CCO)C3)cc2)cc1-c1ccc2c(c1)CCNC2=O [I-123, 6-(2-amino-6-fluoro-5-(4-(1-(2-hydroxyethyl)-2,5-dihydro-1H-pyrrol-3-yl)phenyl)pyridin-3-yl)-3,4-dihydroisoquinolin-1(2H)-one] | 0.1 to 10 nM | > 1000 nM
15 | COCCN1CC=C(c2ccc(-c3cc(-c4ccc5c(c4)CCNC5=O)c(N)nc3F)cc2)C1 [I-124, 6-(2-amino-6-fluoro-5-(4-(1-(2-methoxyethyl)-2,5-dihydro-1H-pyrrol-3-yl)phenyl)pyridin-3-yl)-3,4-dihydroisoquinolin-1(2H)-one] | 0.1 to 10 nM | > 1000 nM
16 | Nc1nc(F)c(-c2ccc(C3=CCN(CC(F)F)C3)cc2)cc1-c1ccc2c(c1)CCNC2=O [I-127, 6-(2-amino-5-(4-(1-(2,2-difluoroethyl)-2,5-dihydro-1H-pyrrol-3-yl)phenyl)-6-fluoropyridin-3-yl)-3,4-dihydroisoquinolin-1(2H)-one] | 0.1 to 10 nM | > 1000 nM
17 | CN1CCC(n2cc(-c3cc(-c4cc5c(cc4F)C(=O)NCC5)c(N)nc3F)cn2)CC1 [I-129, 6-(2-amino-6-fluoro-5-(1-(1-methylpiperidin-4-yl)-1H-pyrazol-4-yl)pyridin-3-yl)-7-fluoro-3,4-dihydroisoquinolin-1(2H)-one] | 0.1 to 10 nM | 101 to 1000 nM
18 | CC(C)[C@H]1CN(c2ccc(-c3cc(-c4ccc5c(c4)CCNC5=O)c(N)nc3F)cc2C(F)(F)F)CCO1 [I-130, (S)-6-(2-amino-6-fluoro-5-(4-(2-isopropylmorpholino)-3-(trifluoromethyl)phenyl)pyridin-3-yl)-3,4-dihydroisoquinolin-1(2H)-one] | 11 to 100 nM | > 1000 nM
19 | Nc1nc(F)c(-c2ccc(C3COCCN3CC(F)F)cc2)cc1-c1ccc2c(c1)CCNC2=O (stereo not shown) [I-133, 6-(2-amino-5-(4-(4-(2,2-difluoroethyl)morpholin-3-yl)phenyl)-6-fluoropyridin-3-yl)-3,4-dihydroisoquinolin-1(2H)-one] | 0.1 to 10 nM | > 1000 nM
20 | CC(C)[C@H]1CN(c2ccc(-c3cc(-c4ccc5c(c4)CCNC5=O)c(N)nc3Cl)cc2)CCO1 [I-136, (S)-6-(2-amino-6-chloro-5-(4-(2-isopropylmorpholino)phenyl)pyridin-3-yl)-3,4-dihydroisoquinolin-1(2H)-one] | 101 to 1000 nM | > 1000 nM
21 | CC(C)[C@@H]1CN(c2ccc(-c3cc(-c4ccc5c(c4)CCNC5=O)c(N)nc3Cl)c(F)c2)CCO1 [I-137, (R)-6-(2-amino-6-chloro-5-(2-fluoro-4-(2-isopropylmorpholino)phenyl)pyridin-3-yl)-3,4-dihydroisoquinolin-1(2H)-one] | 11 to 100 nM | > 1000 nM
22 | Nc1nc(F)c(-c2ccc(C3=CCN(CCO)CC3)cc2)cc1-c1ccc2c(c1)CCNC2=O [I-138, 6-(2-amino-6-fluoro-5-(4-(1-(2-hydroxyethyl)-1,2,3,6-tetrahydropyridin-4-yl)phenyl)pyridin-3-yl)-3,4-dihydroisoquinolin-1(2H)-one] | 0.1 to 10 nM | > 1000 nM
23 | COCCN1CC=C(c2ccc(-c3cc(-c4ccc5c(c4)CCNC5=O)c(N)nc3F)cc2)CC1 [I-139, 6-(2-amino-6-fluoro-5-(4-(1-(2-methoxyethyl)-1,2,3,6-tetrahydropyridin-4-yl)phenyl)pyridin-3-yl)-3,4-dihydroisoquinolin-1(2H)-one] | 0.1 to 10 nM | > 1000 nM
24 | CC(C)N1C[C@H]2C[C@@]2(c2ccc(-c3cc(-c4cc5c(cc4F)C(=O)NCC5)c(N)nc3F)cc2)C1 [I-141, 6-(2-amino-6-fluoro-5-(4-((1R,5S)-3-isopropyl-3-azabicyclo[3.1.0]hexan-1-yl)phenyl)pyridin-3-yl)-7-fluoro-3,4-dihydroisoquinolin-1(2H)-one] | 0.1 to 10 nM | > 1000 nM
25 | CC(C)N1C[C@@H]2C[C@]2(c2ccc(-c3cc(-c4cc5c(cc4F)C(=O)NCC5)c(N)nc3F)cc2)C1 [I-142, 6-(2-amino-6-fluoro-5-(4-((1S,5R)-3-isopropyl-3-azabicyclo[3.1.0]hexan-1-yl)phenyl)pyridin-3-yl)-7-fluoro-3,4-dihydroisoquinolin-1(2H)-one] | 0.1 to 10 nM | > 1000 nM
26 | Nc1nc(F)c(-c2ccc(OC3CCNCC3)c3c2OCO3)cc1-c1ccc2c(c1)CCNC2=O [I-145, 6-(2-amino-6-fluoro-5-(7-(piperidin-4-yloxy)benzo[d][1,3]dioxol-4-yl)pyridin-3-yl)-3,4-dihydroisoquinolin-1(2H)-one] | 0.1 to 10 nM | > 1000 nM
